In ChEMBL document CHEMBL1131563, “Effects of alpha- and beta-galactosylated C2-ceramides on the immune system” (J Med Chem, 1998):

How the values were obtained:
Mus musculus [1] = organism: Mus musculus; experiment: Concentration at which compound induced concentration-dependent stimulation of the MLR responses in murine spleen cells; range = 80 ng/mL to 2 ug/mL; assay type: functional, cell-based
Mus musculus [2] = organism: Mus musculus; experiment: Concentration at which compound suppressed the MLR response (mixed leukocyte reaction) in murine spleen cells; range = 80 ng/mL to 2 ug/mL; assay type: functional, cell-based

CCCCCCCCCCCCC/C=C/[C@@H](O)[C@H](CO[C@@H]1O[C@@H](CO)[C@H](O)[C@H](O)[C@@H]1O)NC(C)=O was tested, and the Concentration (Mus musculus [1]) was 2 µg/mL.
CCCCCCCCCCCCC/C=C/[C@@H](O)[C@H](CO)NC(C)=O showed a Concentration (Mus musculus [2]) of 2 µg/mL.
